The test system of data set [1] is PANC-1. The data set can be described thus: Induction of apoptosis in human PANC1 cells assessed as increase in caspase-3/7 activity after 24 hrs by Caspase-Glo 3/7 luminescence assay. The format is functional, cell-based.
The test system of a further data set is TERT-RPE1. Briefly: Cytotoxicity against hTERT-RPE1 cells after 48 hrs by resazurin dye-based fluorescence assay. It counts as cell-based. The note with it: Homo sapiens, RPE-1, 48 h.
Data set [2] has as its system HepG2. The data set can be described thus: Effect on C1orf186 gene expression in human HepG2 cells at IC50 after 48 hrs by microarray analysis. It counts as functional, cell-based.
For data set [3], the system named is HepG2. The data set can be described thus: Effect on CXCR3 gene expression in human HepG2 cells at IC50 after 48 hrs by microarray analysis. It counts as functional, cell-based.
The test system of data set [4] is HepG2. The data set can be described thus: Effect on CYP1A1 gene expression in human HepG2 cells at IC50 after 48 hrs by microarray analysis. It counts as ADME, cell-based. The note with it: hepg2, 48 h.
For data set [5], the system named is HepG2. The data set can be described thus: Effect on GDF15 gene expression in human HepG2 cells at IC50 after 48 hrs by microarray analysis. The format is functional, cell-based.
Data set [6] has as its system HepG2. The data set can be described thus: Effect on LANCL 1 gene expression in human HepG2 cells at IC50 after 48 hrs by microarray analysis. It counts as functional, cell-based.
The test system of data set [7] is HepG2. Briefly: Effect on TUBB1 gene expression in human HepG2 cells at IC50 after 48 hrs by microarray analysis. The format is functional, cell-based.
In data set [8] the test system is PANC-1. Briefly: Effect on ABCB1 gene expression in human PANC1 cells at IC50 after 48 hrs by microarray analysis. It counts as functional, cell-based.
Data set [9] has as its system PANC-1. The data set can be described thus: Effect on CYP3A4 gene expression in human PANC1 cells at IC50 after 48 hrs by microarray analysis. The settings on record: panc-1, 48 h. The format is ADME, cell-based.
The test system of data set [10] is PANC-1. The data set can be described thus: Effect on FEZ1 gene expression in human PANC1 cells at IC50 after 48 hrs by microarray analysis. It counts as functional, cell-based.
The test system of data set [11] is PANC-1. The data set can be described thus: Effect on HSPE1 gene expression in human PANC1 cells at IC50 after 48 hrs by microarray analysis. The format is functional, cell-based.
Data set [12] has as its system PANC-1. The data set can be described thus: Effect on ITGA2 gene expression in human PANC1 cells at IC50 after 48 hrs by microarray analysis. It counts as functional, cell-based.
Data set [13] relates to PANC-1. Briefly: Effect on SDR16C5 gene expression in human PANC1 cells at IC50 after 48 hrs by microarray analysis. It counts as functional, cell-based.
Data set [14] concerns HepG2. Briefly: Effect on GADD45A gene expression in human HepG2 cells at IC50 after 48 hrs by microarray analysis relative to control. The format is functional.
Data set [15] has as its system HepG2. The data set can be described thus: Effect on GDF15 gene expression in human HepG2 cells at IC50 by SYBR green-dye based qRT-PCR analysis relative to beta-actin. It counts as functional. In general terms: In qPCR the cycle at which signal appears reflects the starting amount.
For the next data set, the system named is hTERT-BJ. Briefly: Cytotoxicity against hTERT-BJ cells at 25 uM after 48 hrs by resazurin dye-based fluorescence assay relative to control. It counts as cell-based. The settings on record: human. Background: Alamar Blue is a resazurin reagent that responds to reducing activity.

Each structure is given as a SMILES string. pIC50: −log10 of the molar value. The source made the active and inactive calls. No cut-off for these calls is given here. Bounds are passed on as bounds.

On to `O=C(N/N=C/c1cc2ccccc2nc1Cl)c1cc2cc(Br)ccc2oc1=O`, for which the Activity result in the data set with PANC-1 [1] is “Dose-dependent effect”; in the data set on HepG2 [4], “Active”; in the data set with PANC-1 [9] it was “Active”; with hTERT-BJ it was 3.47%. In the data set on TERT-RPE1, the pIC50 (commonly the IC50 on a negative log10 scale, so that one unit is a factor of ten) was below 4.30. Moreover, the outcome in the data set on HepG2 [2], in the data set on HepG2 [3], in the data set on HepG2 [5], in the data set on HepG2 [6], with HepG2 [7] and in the data set on PANC-1 [8] was Active. For the same molecule, the result in the data set with PANC-1 [10], in the data set with PANC-1 [11], in the data set with PANC-1 [12] and in the data set with PANC-1 [13] was Active. Besides, the results for the “fold change (FC)” value in the data set on HepG2 [14] and with HepG2 [15] were 1.96 and 3.51, respectively.
